Reference: US10131652B2, “Pyrimidinyloxy benzene derivatives as herbicides” (E. I. DU PONT DE NEMOURS AND COMPANY, priority 2014, dated 2018)

Legend:
Type in all cases: in vivo
[1] = test system: blackgrass (Alopecurus myosuroides); assay: Test B postemergence plant response
Procedure, shortened: (§1)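 Weeds grown in loam soil/sand pots were sprayed postemergence at 2 to 10 cm height, one- to two-leaf stage. After approximately 10 days in greenhouse, injury was rated visually against untreated controls on a 0 (no effect) to 100 (complete control) scale; dash means no test result.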

[2] = test system: galium (catchweed bedstraw, Galium aparine); assay: Test B postemergence plant response
Procedure, shortened: as §1

[3] = test system: barnyardgrass (Echinochloa crus-galli); assay: Test C flooded paddy test plant response; details: Flood, 250 g ai/ha; scale of 0 to 100 where 0 is no effect and 100 is complete control; 13 to 15 days
Procedure, shortened: (§2)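 Plants grown to 2-leaf stage, flooded 3 cm above soil; compounds applied directly into paddy water, depth kept throughout. Visual rating versus controls after 13 to 15 days in greenhouse, 0 (no effect) to 100 (complete control).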

[4] = test system: small-flower umbrella sedge (Cyperus difformis); assay: Test C flooded paddy test plant response; details: Flood, 250 g ai/ha; scale of 0 to 100 where 0 is no effect and 100 is complete control; 13 to 15 days
Procedure, shortened: as §2

[5] = test system: rice (Oryza sativa); assay: Test C flooded paddy test plant response; details: Flood, 250 g ai/ha; scale of 0 to 100 where 0 is no effect and 100 is complete control; 13 to 15 days
Procedure, shortened: as §2

[6] = test system: ducksalad (Heteranthera limosa); assay: Test C flooded paddy test plant response; details: Flood, 250 g ai/ha; scale of 0 to 100 where 0 is no effect and 100 is complete control; 13 to 15 days
Procedure, shortened: as §2

[7] = test system: wheat (Triticum aestivum); assay: Test B pre-/postemergence plant response
Procedure, shortened: (§3)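 Seeds in loam–sand blend given preemergence soil spray; separately, plants at one- to two-leaf stage (2–10 cm) sprayed postemergence, compounds in non-phytotoxic solvent with surfactant. Injury rated visually versus untreated controls after ~10 days in greenhouse, 0 (no effect) to 100 (complete control).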

[8] = test system: barnyardgrass (Echinochloa crus-galli); assay: Test B pre-/postemergence plant response
Procedure, shortened: as §3

[9] = test system: pigweed (Amaranthus retroflexus); assay: Test B pre-/postemergence plant response
Procedure, shortened: as §3

[10] = test system: corn (Zea mays); assay: Test B pre-/postemergence plant response
Procedure, shortened: as §3

[11] = test system: ragweed (common ragweed, Ambrosia elatior); assay: Test B pre-/postemergence plant response
Procedure, shortened: as §3

[12] = test system: kochia (Kochia scoparia); assay: Test B pre-/postemergence plant response
Procedure, shortened: as §3

[13] = test system: giant foxtail (Setaria faberii); assay: Test B pre-/postemergence plant response
Procedure, shortened: as §3

[14] = test system: Italian ryegrass (Lolium multiflorum); assay: Test B pre-/postemergence plant response
Procedure, shortened: as §3

[15] = 125 g ai/ha, postemergence, 0 to 100 scale, 0 no effect, 100 complete control
[16] = Postemergence, 31 g ai/ha, 0 to 100 scale (0 no effect, 100 complete control)
[17] = 31 g ai/ha, Preemergence, 0 to 100 scale where 0 is no effect and 100 is complete control
[18] = Preemergence, 125 g ai/ha, 0 to 100 scale (0 no effect, 100 complete control)

Compound | Plant response rating, Blackgrass [1, 15] | Plant response rating, Blackgrass [1, 16] | Plant response rating, Galium [2, 15] | Plant response rating, Galium [2, 16] | Barnyardgrass plant response rating [3] | Sedge, Umbrella plant response rating [4] | Rice plant response rating [5] | Ducksalad plant response rating [6] | Plant response rating, Wheat [7, 15] | Plant response rating, Wheat [7, 16] | Plant response rating, Barnyardgrass [8, 17] | Plant response rating, Barnyardgrass [8, 15] | Plant response rating, Barnyardgrass [8, 16] | Barnyardgrass plant response rating [8, 18] | Plant response rating, Pigweed [9, 17] | Plant response rating, Pigweed [9, 15] | Plant response rating, Pigweed [9, 16] | Pigweed plant response rating [9, 18] | Plant response rating, Corn [10, 15] | Plant response rating, Corn [10, 16] | also measured
C=C(C)c1cc(-c2ccccc2Oc2ncc(Br)cn2)on1 [Compound 197] | 0 | 0 | 50 | 10 | 20 | 0 | 0 | 0 | 0 | 0 | 0 | 0 | 0 | 0 | 0 | 10 | 10 | 0 | 0 | 0 | Plant response rating, Ragweed [11, 17]: 0; Plant response rating, Ragweed [11, 15]: 0; Plant response rating, Ragweed [11, 16]: 0; Ragweed plant response rating [11, 18]: 0; Plant response rating, Kochia [12, 17]: 0; Plant response rating, Kochia [12, 15]: 0; Plant response rating, Kochia [12, 16]: 0; Kochia plant response rating [12, 18]: 0; Plant response rating, Foxtail, Giant [13, 17]: 0; Plant response rating, Foxtail, Giant [13, 15]: 0; Plant response rating, Foxtail, Giant [13, 16]: 0; Foxtail, Giant plant response rating [13, 18]: 0; Plant response rating, Ryegrass, Italian [14, 17]: 0; Plant response rating, Ryegrass, Italian [14, 15]: 0; Plant response rating, Ryegrass, Italian [14, 16]: 0; Ryegrass, Italian plant response rating [14, 18]: 0
Fc1cnc(Oc2ccccc2-c2cc(C(F)F)no2)nc1 [Compound 210] | 30 | 10 | 90 | 50 | 0 | 40 | 0 | 85 | 20 | 0 | 10 | 0 | 0 | 80 | 100 | 80 | 50 | 100 | 10 | 0 | Plant response rating, Ragweed [11, 17]: 0; Plant response rating, Ragweed [11, 15]: 30; Plant response rating, Ragweed [11, 16]: 10; Ragweed plant response rating [11, 18]: 20; Plant response rating, Kochia [12, 17]: 50; Plant response rating, Kochia [12, 15]: 80; Plant response rating, Kochia [12, 16]: 50; Kochia plant response rating [12, 18]: 90; Plant response rating, Foxtail, Giant [13, 17]: 40; Plant response rating, Foxtail, Giant [13, 15]: 40; Plant response rating, Foxtail, Giant [13, 16]: 0; Foxtail, Giant plant response rating [13, 18]: 90; Plant response rating, Ryegrass, Italian [14, 17]: 0; Plant response rating, Ryegrass, Italian [14, 15]: 0; Plant response rating, Ryegrass, Italian [14, 16]: 0; Ryegrass, Italian plant response rating [14, 18]: 10
Cc1cnc(Oc2ccccc2-c2cc(C(F)F)no2)nc1 [Compound 211] | 50 | 10 | 100 | 60 | 0 | 20 | 0 | 70 | 0 | 0 | 10 | 10 | 0 | 50 | 100 | 50 | 20 | 100 | 10 | 0 | Plant response rating, Ragweed [11, 17]: 0; Plant response rating, Ragweed [11, 15]: 30; Plant response rating, Ragweed [11, 16]: 0; Ragweed plant response rating [11, 18]: 30; Plant response rating, Kochia [12, 17]: 20; Plant response rating, Kochia [12, 15]: 90; Plant response rating, Kochia [12, 16]: 40; Kochia plant response rating [12, 18]: 80; Plant response rating, Foxtail, Giant [13, 17]: 10; Plant response rating, Foxtail, Giant [13, 15]: 50; Plant response rating, Foxtail, Giant [13, 16]: 10; Foxtail, Giant plant response rating [13, 18]: 100; Plant response rating, Ryegrass, Italian [14, 17]: 0; Plant response rating, Ryegrass, Italian [14, 15]: 0; Plant response rating, Ryegrass, Italian [14, 16]: 0; Ryegrass, Italian plant response rating [14, 18]: 0
COc1cnc(Oc2ccccc2-c2cc(C(F)F)no2)nc1 [Compound 213] | 10 | 0 | 80 | 50 | 0 | 0 | 0 | 75 | 10 | 0 | 0 | 0 | 0 | 40 | 80 | 80 | 30 | 100 | 10 | 0 | Plant response rating, Ragweed [11, 17]: 0; Plant response rating, Ragweed [11, 15]: 60; Plant response rating, Ragweed [11, 16]: 10; Ragweed plant response rating [11, 18]: 0; Plant response rating, Kochia [12, 17]: 10; Plant response rating, Kochia [12, 15]: 100; Plant response rating, Kochia [12, 16]: 60; Kochia plant response rating [12, 18]: 50; Plant response rating, Foxtail, Giant [13, 17]: 0; Plant response rating, Foxtail, Giant [13, 15]: 20; Plant response rating, Foxtail, Giant [13, 16]: 0; Foxtail, Giant plant response rating [13, 18]: 80; Plant response rating, Ryegrass, Italian [14, 17]: 0; Plant response rating, Ryegrass, Italian [14, 15]: 0; Plant response rating, Ryegrass, Italian [14, 16]: 0; Ryegrass, Italian plant response rating [14, 18]: 0
Clc1cnc(Oc2ccccc2-c2cocn2)nc1 [Compound 214] | 0 | 0 | 10 | 0 | 0 | 0 | 0 | 0 | 0 | 0 | 0 | 0 | 0 | 0 | 0 | 10 | 0 | 0 | 0 | 0 | Plant response rating, Ragweed [11, 17]: 0; Plant response rating, Ragweed [11, 15]: 0; Plant response rating, Ragweed [11, 16]: 0; Ragweed plant response rating [11, 18]: 0; Plant response rating, Kochia [12, 17]: 0; Plant response rating, Kochia [12, 15]: 0; Plant response rating, Kochia [12, 16]: 0; Kochia plant response rating [12, 18]: 0; Plant response rating, Foxtail, Giant [13, 17]: 0; Plant response rating, Foxtail, Giant [13, 15]: 0; Plant response rating, Foxtail, Giant [13, 16]: 0; Foxtail, Giant plant response rating [13, 18]: 0; Plant response rating, Ryegrass, Italian [14, 17]: 0; Plant response rating, Ryegrass, Italian [14, 15]: 0; Plant response rating, Ryegrass, Italian [14, 16]: 0; Ryegrass, Italian plant response rating [14, 18]: 0
